Key:
Assay type in all cases: in vivo
[1] = tested on: Corn Earworm (Helicoverpa zea, HELIZE, CEW); experiment: Bioassay 4: corn earworm, artificial diet, 128-cell tray; details: AI alone
Description: (§1) Stock solutions were prepared with F1 as well as for each of the active ingredients individually. Test solutions were prepared from the stock solutions. Test solutions were prepared containing F1, the individual active ingredients, and mixtures of F1 with each of the active ingredients. The test solution for F1 was prepared by adding 500 μL of the stock solution to a 25 mL glass vial, then adding 500 μL of a 9:1 mixture of acetone:water. The individual active ingredients were prepared by adding 500 μL of stock solution to a 25 mL glass vial, then adding 500 μL of a 9:1 mixture of acetone:water. The test solutions containing mixtures of F1, and the individual active ingredients were prepared by adding 500 μL of the active ingredient stock solution to a 25 mL glass vial, followed by 500 μL of the F1 stock solution, creating a test solution containing 0.04% (w/v) of F1 and 0.4% (w/v) of the active ingredient. Each test solution was serially diluted to create desired doses of test solutions (F1 at 0.04% (w/v), 0.004% (w/v), 0.0004% (w/v), 0.00004% (w/v), 0.000004% (w/v), and 0.0000004% (w/v) and active ingredients at 0.4% (w/v), 0.04% (w/v), 0.004% (w/v), 0.0004% (w/v), 0.00004% (w/v), and 0.000004% (w/v)).
(§2) The test solutions were tested against CEW, FAW, and SBL using the following procedure: an artificial lepidopteran diet (Multispecies Lepidopteran Diet, Southland Products) was distributed in 128-cell bioassay trays (Frontier Agricultural Sciences™). 50 μL of test solution was pipetted into a cell in the bioassay tray. (The test solution doses of 0.04% (w/v), 0.004% (w/v), 0.0004% (w/v), 0.00004% (w/v), 0.000004% (w/v), and 0.0000004% (w/v) translated to concentrations of 5, 0.5, 0.05, 0.005, 0.0005, and 0.00005 μg/cm^2 on the diet, respectively.) A reference treatment (solvent check) was treated with the diluent only. Each treatment was replicated 8 times for each species. A 2nd instar CEW, FAW, or SBL larva was placed on top of the diet in each cell and was contained with a clear perforated adhesive lid. Test trays were held at approximately 26° C. and ambient relative humidity (RH) prior to grading.
(§3) After 5 days, the number of live larvae were recorded from each cell and percent control was measured using Abbott's correction formula (W. S. Abbott, J. Econ. Entomol. 18 (1925), pp. 265-267) as follows:
(§4) where X=No. of live larvae on solvent check and Y=No. of live larvae on treated diet. In Table B4 the “Expected % Control” was calculated using the method described in Colby S. R., Weeds, 1967, 15, 20-22. Bioassay 5: Neotropical Brown Stink Bug (Euschistus heros, EUSCHE, “BSB”).

[2] = tested on: Green Peach Aphid (Myzus persicae, MYZUPE, GPA); experiment: Bioassay 1: green peach aphid, cabbage seedling foliar spray; details: AI alone at the rate of Wt Ratio F1:AI 1:40000 (F1 0.04), 3 days
Description: Bioassay 1: Green Peach Aphid (Myzus persicae, MYZUPE, “GPA”).
Stock solutions of F1 and various active ingredients were prepared initially at a concentration of 4 milligrams per milliliter (mg/mL) for F1 and 0.1 mg/mL for the active ingredients, respectively, using a 1:1 mixture of acetone:methanol as a diluent. Stock solutions were prepared with F1 as well as for each of the active ingredients individually. Test solutions were prepared from the stock solutions. Test solutions were prepared containing F1, the individual active ingredients, and mixtures of F1 with each of the active ingredients. The test solutions for F1 and the individual active ingredients were prepared by adding 750 microliters (μL) of stock solution to a 25 mL glass vial, then adding 750 μL of 1:1 acetone:methanol solvent, followed by the addition of 13.5 mL water with 0.025% Tween® 20 to create a 0.0005% (weight/volume (w/v)) solution. The test solutions containing mixtures of F1, and the individual active ingredients were prepared by adding 750 μL of the active ingredient stock solution to a 25 mL glass vial, followed by 750 μL of the F1 stock solution, then by the addition of 13.5 mL water with 0.025% Tween® 20 to create a test solution containing 0.0005% (w/v) F1 and 0.0005% (w/v) of the active ingredient. Each test solution was serially diluted to create desired doses of test solutions (0.0005% (w/v), 0.000125% (w/v), 0.00003125% (w/v), 0.0000078% (w/v), 0.00000195% (w/v), and 0.0000005% (w/v)). In test solutions containing mixtures of F1 and the active ingredients, the active ingredients were diluted as described above, but the concentration of F1 was held constant (0.04% (w/v)).
The test solutions were tested against GPA using the following procedure: cabbage seedlings, grown in 3-inch pots with 2-3 small (3-5 centimeter (cm)) true leaves, were used as test substrate. The seedlings were infested with 20-50 GPA (wingless adult and nymph stages) one day prior to chemical application. Four pots with individual seedlings were used for each treatment. A hand-held aspirator-type sprayer was used for spraying a solution to both sides of […] leaves until runoff. Reference plants (solvent check) were sprayed with the diluent only (0.025% Tween® 20 and 10% acetone:methanol (1:1) in water). Treated plants were held in a holding room for three days at approximately 25° C. and ambient relative humidity (RH about 20% to about 45%) prior to grading. Evaluation was conducted by counting the number of live aphids per plant under a microscope three days after treatment. Percent control was measured using Abbott's correction formula (W. S. Abbott, J. Econ. Entomol. 18 (1925), pp. 265-267) as follows:
where X=No. of live aphids on solvent check plants and Y=No. of live aphids on treated plants. In Table B1 the “Expected % Control” was calculated using the method described in Colby S. R., Weeds, 1967, 15, 20-22. Bioassay 2: Sweet Potato Whitefly (Bemisia tabaci, BEMITA, “SPW”).

[3] = tested on: Soybean Looper (Chrysodeixis includens, PSEPIN, SBL); experiment: Bioassay 4: soybean looper, artificial diet, 128-cell tray; details: AI alone
Description: as §1, §2, §3, §4

[4] = tested on: Sweet Potato Whitefly (Bemisia tabaci, BEMITA, SPW); experiment: Bioassay 2: sweet potato whitefly, cotton seedling foliar spray; details: AI alone, Wt % AI 0.0001, 7-9 days
Description: Stock solutions were prepared with F1 as well as for each of the active ingredients individually. Test solutions were prepared from the stock solutions. Test solutions were prepared containing F1, the individual active ingredients, and mixtures of F1 with each of the active ingredients. The test solutions for F1 and the individual active ingredients were prepared by adding 500 μL of stock solution to a 25 mL glass vial, then adding 500 μL of acetone, followed by the addition of 9 mL water with 0.025% Tween® 20 to create a 0.001% (w/v) solution. The test solutions containing mixtures of F1, and the individual active ingredients were prepared by adding 500 μL of the active ingredient stock solution to a 25 mL glass vial, followed by 500 μL of the F1 stock solution, then by the addition of 9 mL water with 0.025% Tween® 20 to create a test solution containing 0.001% (w/v) F1 and 0.001% (w/v) of the active ingredient. Each test solution was serially diluted to create desired doses of test solutions (0.001% (w/v), 0.0001% (w/v), 0.00001% (w/v), 0.000001% (w/v), 0.0000001% (w/v), and 0.00000001% (w/v)).
The test solutions were tested against SPW using the following procedure: Cotton seedlings grown in 3-inch pots, pruned so that only one true leaf remained, were used as test substrate. Adult B. tabaci were allowed to colonize the cotton plants and lay eggs for 24 hours after which all adults were removed from the plants using compressed air. Plants were monitored for egg development, and when crawler emergence was underway (>25% emergence based on visual examination using a microscope), the plants were sprayed using the test solutions and methods described above for green peach aphids (GPA). Treated plants were held in a holding room at approximately 25° C. and ambient relative humidity (RH) prior to grading. Evaluation was conducted by counting the number of developed 2-3 instar nymphs per plant under a microscope 7-9 days after treatment. Percent control was measured using Abbott's correction formula (W. S. Abbott, J. Econ. Entomol. 18 (1925), pp. 265-267) as follows:
where X=No. of live nymphs on solvent check plants and Y=No. of live nymphs on treated plants. In Table B2 the “Expected % Control” was calculated using the method described in Colby S. R., Weeds, 1967, 15, 20-22. Bioassay 3: Western Flower Thrips (Frankliniella occidentalis, FRANOC, “WFT”).

[5] = tested on: Fall Armyworm (Spodoptera frugiperda, LAPHFR, FAW); experiment: Bioassay 4: fall armyworm, artificial diet, 128-cell tray; details: AI alone
Description: as §1, §2, §3, §4

[6] = tested on: Western Corn Rootworm (Diabrotica virgifera virgifera, DIABVI, WCR); experiment: Bioassay 8: western corn rootworm, soil drench, corn root protection; details: AI alone, UgActive AI 1; DIABVI, soil drench, 13 days
Description: Corn seeds were planted in steam pasteurized soil filled greenhouse pots. Western corn rootworm Diabrotica virgifera virgifera eggs supplied from the Corteva Agriscience in Johnston, IA US, were suspended in a 0.08% agar solution added into the soil. Stock solutions of F1 and active ingredients were prepared at a concentration of either 250 or 500 ugai/10 mL for F1 and active ingredients at the ratios of (F1:AI) 1:0.004; 1:0.01; 1:0.02; 1:0.04; 1:0.08; 1:0.1; 1:0.15; 1:0.2; 1:0.4; 1:2; or 1:4, using a 1:1 solution of acetone:water as a diluent. A soil application of solutions were applied as a 10 mL drench over the soil. Plants were grown in the greenhouse for 13 days at 25 C after which the roots were removed from the soil, washed, and measured to determine the length of the median nodal roots. The measured lengths were compared to the infested and un-infested untreated checks to determine the mean percent control offered to protect the corn roots.

[7] = tested on: Western Flower Thrips (Frankliniella occidentalis, FRANOC, WFT); experiment: Bioassay 3: western flower thrips, cotton leaf disc dip; details: 3 days
Description: Stock solutions of F1 and various active ingredients were prepared initially at a concentration of 0.1 mg/mL using acetone as a diluent. Stock solutions were prepared with F1 as well as for each of the active ingredients individually. Test solutions were prepared from the stock solutions. Test solutions were prepared containing F1, the individual active ingredients, and mixtures of F1 with each of the active ingredients. The test solutions for F1 and the individual active ingredients were prepared by adding 500 μL of stock solution to a 25 mL glass vial, then adding 500 μL of acetone, followed by the addition of 9 mL water with 0.025% Tween® 20 to create a 0.0005% (w/v) solution. The test solutions containing mixtures of F1, and the individual active ingredients were prepared by adding 500 μL of the active ingredient stock solution to a 25 mL glass vial, followed by 500 μL of the F1 stock solution, then by the addition of 9 mL water with 0.025% Tween® 20 to create a test solution containing 0.0005% (w/v) F1 and 0.0005% (w/v) of the active ingredient. Each test solution was serially diluted to create desired doses of test solutions (0.0005% (w/v), 0.000125% (w/v), 0.00003125% (w/v), 0.0000078% (w/v), and 0.00000195% (w/v)).
The test solutions were tested against WFT using the following procedure: Leaf discs (2.7 cm in diameter) were cut from the true leaves of cotton plants. Leaf discs were dipped into the test solutions and shaken to ensure complete coverage of the leaf disc and then placed in Millipore® PetriSlides containing a filter paper disc. Treated leaf discs were air dried for approximately 1 hour. Each leaf disc was infested with 5 WFT (9-10-day old nymphs) by placement on each leaf disc, and the PetriSlides were capped to prevent escape. Each treatment was replicated three times and the test treatments were held at approximately 26° C. and ambient relative humidity (RH) prior to grading. Reference discs (solvent check) were treated with the diluent only. Evaluation was conducted by counting the number of live WFT under magnification 3 days after treatment. Percent control was measured using Abbott's correction formula (W. S. Abbott, J. Econ. Entomol. 18 (1925), pp. 265-267) as follows:
where X=No. of live nymphs on solvent check leaf discs and Y=No. of live nymphs on treated leaf discs. In Table B3 the “Expected % Control” was calculated using the method described in Colby S. R., Weeds, 1967, 15, 20-22. Bioassay 4: Corn Earworm (Helicoverpa zea, HELIZE, “CEW”), Fall Armyworm (Spodoptera frugiperda, LAPHFR, “FAW”), and Soybean Looper (Chrysodeixis includens, PSEPIN, “SBL”).

Compound	Average % Control AI ([1]; 0.000004 wt %)	Average % Control AI ([1]; 0.00004 wt %)	Average % Control AI [2]	Average % Control AI ([3]; 0.000004 wt %)	Average % Control AI [4]	Average % Control AI ([5]; 0.000004 wt %)	Average % Control AI [6]	Average % Control AI ([7]; AI alone at 1:1 rate to F1 0.195 (10^-6 Wt %))	Average % Control AI ([7]; AI alone at 1:1 rate to F1 3.125 (10^-6 Wt %))	Average % Control AI ([3]; 0.00004 wt %)	Average % Control AI ([5]; 0.00004 wt %)
CNC(=O)c1cc(Cl)cc(C)c1NC(=O)c1cc(Br)nn1-c1ncccc1Cl [Chlorantraniliprole]	0.0%	0.0%	8.1%	37.5%	28.0%	62.5%	–	–	–	–	–
CN/C(=N\[N+](=O)[O-])NCc1cnc(Cl)s1 [Clothianidin]	–	–	–	–	–	–	14.8%	–	–	–	–
N#Cc1nn(-c2c(Cl)cc(C(F)(F)F)cc2Cl)c(N)c1[S+]([O-])C(F)(F)F (centres unmarked) [Fipronil]	0.0%	0.0%	–	0.0%	8.9%	0.0%	–	9.5%	42.9%	0.0%	0.0%
CO/N=C(/C1=NOCCO1)c1ccccc1Oc1ncnc(Oc2ccccc2Cl)c1F [Fluoxastrobin]	–	–	–	–	–	–	0.0%	–	–	–	–
